ChEMBL document CHEMBL4819076, “An affinity prediction approach for the ligand of E3 ligase Cbl-b and an insight into substrate binding pattern” (Bioorg Med Chem, 2021)
Where a SMILES comes first, the peptide text is derived from it. [ ]: non-standard residue; d: D form. pY = N[C@@H](Cc1ccc(OP(=O)(O)O)cc1)C(=O)O

What was measured:
[1] = target: T1, E3 ubiquitin-protein ligase CBL-B (Homo sapiens, UniProt Q13191); experiment: Binding affinity to recombinant His-tagged Cbl-b (unknown origin) (39 to 368 residues) expressed in Escherichia coli BL21 (DE3) using FITC-DGpYPEPA-NH2 as substrate incubated for 30 mins by fluorescence polarization assay
[2] = target: T1, E3 ubiquitin-protein ligase CBL-B; experiment: Binding affinity to recombinant His-tagged Cbl-b (unknown origin) (39 to 368 residues) expressed in Escherichia coli BL21 (DE3) assessed as dissociation constant by bio-layer interferometry assay

T1 sequence (Q13191 whole entry, the tested form may be a part): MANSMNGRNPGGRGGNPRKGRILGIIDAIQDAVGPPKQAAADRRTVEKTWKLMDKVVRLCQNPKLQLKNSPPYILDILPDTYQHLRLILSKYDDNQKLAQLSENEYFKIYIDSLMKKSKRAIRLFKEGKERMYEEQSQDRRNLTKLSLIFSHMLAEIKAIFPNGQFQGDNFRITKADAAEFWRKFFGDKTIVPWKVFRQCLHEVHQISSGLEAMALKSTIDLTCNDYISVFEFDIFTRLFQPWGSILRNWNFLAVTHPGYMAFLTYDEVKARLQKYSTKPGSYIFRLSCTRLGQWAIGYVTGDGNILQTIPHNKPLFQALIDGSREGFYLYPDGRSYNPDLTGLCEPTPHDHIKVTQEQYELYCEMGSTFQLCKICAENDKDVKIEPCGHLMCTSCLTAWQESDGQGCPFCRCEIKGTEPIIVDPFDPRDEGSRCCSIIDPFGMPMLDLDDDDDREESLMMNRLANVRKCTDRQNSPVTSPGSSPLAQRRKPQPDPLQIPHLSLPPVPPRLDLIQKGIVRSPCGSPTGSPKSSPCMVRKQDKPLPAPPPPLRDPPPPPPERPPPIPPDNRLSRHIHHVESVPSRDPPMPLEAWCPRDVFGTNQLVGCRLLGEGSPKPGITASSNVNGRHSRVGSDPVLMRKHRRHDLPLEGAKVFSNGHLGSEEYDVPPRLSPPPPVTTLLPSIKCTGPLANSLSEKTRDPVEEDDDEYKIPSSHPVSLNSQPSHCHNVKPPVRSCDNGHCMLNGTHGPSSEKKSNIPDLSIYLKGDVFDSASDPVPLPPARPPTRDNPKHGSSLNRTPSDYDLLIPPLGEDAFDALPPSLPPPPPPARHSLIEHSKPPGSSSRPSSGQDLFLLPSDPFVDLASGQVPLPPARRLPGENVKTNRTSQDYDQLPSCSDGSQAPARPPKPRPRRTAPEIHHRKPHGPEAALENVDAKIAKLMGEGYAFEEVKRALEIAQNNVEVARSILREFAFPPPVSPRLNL

Molecule | IC50 [1] | Kd [2]
CC(=O)N[C@@H](Cc1ccc(OP(=O)(O)O)cc1)C(=O)N[C@H](C(=O)N1CCC[C@H]1C(=O)N[C@@H](CCC(=O)O)C(=O)N1CCC[C@H]1C(N)=O)[C@@H](C)O | 7.84 µM | 5.55 µM
CC(=O)N[C@@H](CC(=O)O)C(=O)NCC(=O)N[C@@H](Cc1ccc(OP(=O)(O)O)cc1)C(=O)N[C@H](C(=O)N1CCC[C@H]1C(=O)N[C@@H](CCC(=O)O)C(=O)N1CCC[C@H]1C(=O)N[C@@H](C)C(N)=O)[C@@H](C)O (Ac-DG[pY]TPEPA-NH2) | 10.6 µM | 24.4 µM
CC(=O)N[C@@H](CCCNC(=N)N)C(=O)N[C@@H](Cc1ccc(OP(=O)(O)O)cc1)C(=O)N[C@H](C(=O)N1CCC[C@H]1C(=O)N[C@@H](CCC(=O)O)C(=O)N1CCC[C@H]1C(N)=O)[C@@H](C)O (Ac-R[pY]TPEP-NH2) | – | 0.763 µM
CC(=O)N[C@@H](Cc1ccc(OP(=O)(O)O)cc1)C(=O)N[C@@H](C)C(=O)N1CCC[C@H]1C(=O)N[C@@H](CCC(=O)O)C(=O)N1CCC[C@H]1C(N)=O (Ac-[pY]APEP-NH2) | 104 µM | 57.1 µM
CC[C@H](C)[C@H](NC(=O)[C@@H](NC(=O)[C@H](Cc1ccc(OP(=O)(O)O)cc1)NC(C)=O)[C@@H](C)O)C(=O)N[C@@H](CCC(=O)O)C(=O)N1CCC[C@H]1C(N)=O (Ac-[pY]TIEP-NH2) | – | 35.5 µM
CC(=O)N[C@@H](Cc1ccc(OP(=O)(O)O)cc1)C(=O)N[C@H](C(=O)N1CCC[C@H]1C(=O)N[C@@H](C)C(=O)N1CCC[C@H]1C(N)=O)[C@@H](C)O (Ac-[pY]TPAP-NH2) | 46.3 µM | 18.5 µM
CC(=O)N[C@@H](Cc1ccc(OP(=O)(O)O)cc1)C(=O)N[C@H](C(=O)N1CCC[C@H]1C(=O)N[C@@H](CC(=O)O)C(=O)N1CCC[C@H]1C(N)=O)[C@@H](C)O (Ac-[pY]TPDP-NH2) | – | 22.9 µM
CC(=O)N[C@@H](Cc1ccc(OP(=O)(O)O)cc1)C(=O)N[C@H](C(=O)N1CCC[C@H]1C(=O)N[C@@H](CCC(=O)O)C(N)=O)[C@@H](C)O (Ac-[pY]TPE-NH2) | 398 µM | 98.3 µM
CC(=O)N[C@@H](Cc1ccc(OP(=O)(O)O)cc1)C(=O)N[C@H](C(=O)N1CCC[C@H]1C(=O)N[C@@H](CCC(N)=O)C(=O)N1CCC[C@H]1C(N)=O)[C@@H](C)O (Ac-[pY]TPQP-NH2) | – | 43.4 µM
C[C@@H](O)[C@H](NC(=O)[C@H](Cc1ccc(OP(=O)(O)O)cc1)NC(=O)CN)C(=O)N1CCC[C@H]1C(=O)N[C@@H](CCC(=O)O)C(=O)O (H-G[pY]TPE-OH) | > 1000 µM | –

Continued, values first:

IC50 [1] | Kd [2] | Molecule
11.3 µM | 22.4 µM | CC(=O)NCC(=O)N[C@@H](Cc1ccc(OP(=O)(O)O)cc1)C(=O)N[C@H](C(=O)N1CCC[C@H]1C(=O)N[C@@H](CCC(=O)O)C(=O)N1CCC[C@H]1C(N)=O)[C@@H](C)O (Ac-G[pY]TPEP-NH2)
– | 8.28 µM | CC(=O)N[C@@H](CC(C)C)C(=O)N[C@@H](CCC(N)=O)C(=O)N[C@@H](CCCNC(=N)N)C(=O)N[C@@H](Cc1ccc(OP(=O)(O)O)cc1)C(=O)N[C@@H](CO)C(=O)N[C@@H](CO)C(=O)N[C@@H](CC(=O)O)C(=O)N1CCC[C@H]1C(=O)N[C@H](C(=O)NCC(N)=O)[C@@H](C)O (Ac-LQR[pY]SSDPTG-NH2)
27.3 µM | 24.4 µM | CC(=O)N[C@@H](Cc1ccc(OP(=O)(O)O)cc1)C(=O)N[C@H](C(=O)N[C@@H](C)C(=O)N[C@@H](CCC(=O)O)C(=O)N1CCC[C@H]1C(N)=O)[C@@H](C)O (Ac-[pY]TAEP-NH2)
– | 29.8 µM | CC(=O)N[C@@H](Cc1ccc(OP(=O)(O)O)cc1)C(=O)N[C@H](C(=O)N[C@@H](CC(C)C)C(=O)N[C@@H](CCC(=O)O)C(=O)N1CCC[C@H]1C(N)=O)[C@@H](C)O (Ac-[pY]TLEP-NH2)
– | 33.5 µM | CC(=O)N[C@@H](Cc1ccc(OP(=O)(O)O)cc1)C(=O)N[C@H](C(=O)N1CCC[C@H]1C(=O)N[C@@H](CCC(=O)O)C(=O)N[C@@H](Cc1ccccc1)C(N)=O)[C@@H](C)O (Ac-[pY]TPEF-NH2)
> 1000 µM | – | Ac-ETPEP-NH2
